Experimental data from patent US8071768B2, “Alkylquinoline and alkylquinazoline kinase modulators” (Janssen Pharmaceutica, N.V., priority 2005, dated 2011).

Legend:
[1] = target: T1, FLT ligand-induced wild-type FLT3 phosphorylation (Homo sapiens, UniProt P36888); test: Cell-Based FLT3 Receptor Elisa (Baf3 FLT3 cells); conditions: uncertainty ±20%
T1 construct: host or cells: Baf3 (murine B cell lymphoma line)
T1 sequence (P36888 27-993): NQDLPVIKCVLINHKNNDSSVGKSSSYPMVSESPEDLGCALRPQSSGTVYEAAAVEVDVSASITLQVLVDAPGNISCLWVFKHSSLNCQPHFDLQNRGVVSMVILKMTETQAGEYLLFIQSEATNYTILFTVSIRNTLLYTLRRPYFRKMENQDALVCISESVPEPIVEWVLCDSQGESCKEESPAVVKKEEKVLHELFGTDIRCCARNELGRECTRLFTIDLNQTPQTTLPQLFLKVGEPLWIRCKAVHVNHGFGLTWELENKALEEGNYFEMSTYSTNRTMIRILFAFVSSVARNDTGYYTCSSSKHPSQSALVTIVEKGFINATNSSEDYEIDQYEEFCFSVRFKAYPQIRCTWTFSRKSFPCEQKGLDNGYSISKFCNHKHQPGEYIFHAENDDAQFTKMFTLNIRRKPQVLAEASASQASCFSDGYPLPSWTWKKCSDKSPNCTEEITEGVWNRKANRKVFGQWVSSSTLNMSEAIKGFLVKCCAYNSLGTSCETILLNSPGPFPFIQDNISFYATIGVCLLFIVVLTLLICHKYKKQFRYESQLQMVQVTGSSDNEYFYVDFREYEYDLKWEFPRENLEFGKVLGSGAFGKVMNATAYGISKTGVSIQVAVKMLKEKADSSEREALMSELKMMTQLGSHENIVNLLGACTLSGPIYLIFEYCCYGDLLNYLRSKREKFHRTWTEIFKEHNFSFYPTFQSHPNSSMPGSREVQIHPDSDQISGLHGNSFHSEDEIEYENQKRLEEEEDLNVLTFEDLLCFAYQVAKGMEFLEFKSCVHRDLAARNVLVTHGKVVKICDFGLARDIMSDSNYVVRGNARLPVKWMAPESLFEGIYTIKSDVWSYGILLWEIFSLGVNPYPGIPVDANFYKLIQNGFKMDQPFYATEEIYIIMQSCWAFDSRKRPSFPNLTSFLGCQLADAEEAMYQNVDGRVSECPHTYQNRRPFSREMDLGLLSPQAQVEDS
Description: Cell-Based FLT3 Receptor Elisa
Specific cellular inhibition of FLT ligand-induced wild-type FLT3 phosphorylation was measured in the following manner: Baf3 FLT3 cells overexpressing the FLT3 receptor were obtained from Dr. Michael Heinrich (Oregon Health and Sciences University). The Baf3 FLT3 cell lines were created by stable transfection of parental Baf3 cells (a murine B cell lymphoma line dependent on the cytokine IL-3 for growth) with wild-type FLT3. Cells were selected for their ability to grow in the absence of IL-3 and in the presence of FLT3 ligand.
Baf3 cells were maintained in RPMI 1640 with 10% FBS, penn/strep and 10 ng/ml FLT ligand at 37° C., 5% CO2. To measure direct inhibition of the wild-type FLT3 receptor activity and phosphorylation a sandwich ELISA method was developed similar to those developed for other RTKs (3,4). 200 μL of Baf3FLT3 cells (1×10^6/mL) were plated in 96 well dishes in RPMI 1640 with 0.5% serum and 0.01 ng/mL IL-3 for 16 hours prior to 1 hour compound or DMSO vehicle incubation. Cells were treated with 100 ng/mL Flt ligand (R&D Systems Cat# 308-FK) for 10 min. at 37° C. Cells were pelleted, washed and lysed in 100 ul lysis buffer (50 mM Hepes, 150 mM NaCl, 10% Glycerol, 1% Triton-X-100, 10 mM NaF, 1 mM EDTA, 1.5 mM MgCl2, 10 mM NaPyrophosphate) supplemented with phosphatase (Sigma Cat# P2850) and protease inhibitors (Sigma Cat #P8340). […]

[2] = target: T2, TrkB (Homo sapiens, UniProt Q16620); test: Trk B Fluorescence Polarization Kinase Assay; type: biochemical; conditions: uncertainty ±10%
T2 construct: purchased Upstate 14-507M
T2 sequence (Q16620 32-822): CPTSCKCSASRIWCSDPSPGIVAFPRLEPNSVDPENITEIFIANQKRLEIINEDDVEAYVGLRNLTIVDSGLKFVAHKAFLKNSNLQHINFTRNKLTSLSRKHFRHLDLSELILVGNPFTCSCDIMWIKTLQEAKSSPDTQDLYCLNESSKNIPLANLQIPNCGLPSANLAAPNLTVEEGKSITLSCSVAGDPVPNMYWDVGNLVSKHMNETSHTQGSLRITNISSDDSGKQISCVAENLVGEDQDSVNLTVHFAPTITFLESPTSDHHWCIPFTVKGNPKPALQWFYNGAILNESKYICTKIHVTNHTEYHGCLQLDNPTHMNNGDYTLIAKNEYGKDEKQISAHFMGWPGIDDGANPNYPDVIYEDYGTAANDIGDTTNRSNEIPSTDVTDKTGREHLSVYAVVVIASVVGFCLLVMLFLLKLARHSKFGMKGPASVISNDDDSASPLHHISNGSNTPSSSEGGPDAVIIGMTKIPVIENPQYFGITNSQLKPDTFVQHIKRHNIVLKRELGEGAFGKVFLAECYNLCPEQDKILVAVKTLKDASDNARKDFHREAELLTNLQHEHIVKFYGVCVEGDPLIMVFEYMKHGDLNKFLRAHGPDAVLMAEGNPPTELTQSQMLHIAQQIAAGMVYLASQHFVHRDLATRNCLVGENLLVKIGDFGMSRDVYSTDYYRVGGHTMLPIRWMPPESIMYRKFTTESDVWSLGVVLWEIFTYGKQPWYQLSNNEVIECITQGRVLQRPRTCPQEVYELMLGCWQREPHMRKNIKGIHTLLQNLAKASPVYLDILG
How it was run: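 The TrkB kinase reaction (50 nM enzyme, 20 ug/mL poly Glu4Tyr, 150 uM ATP, 5 mM MgCl2, 1% DMSO) ran 30 minutes at room temperature and was stopped with EDTA. Phosphorylation was detected by fluorescence-polarization displacement of a fluorescein phosphopeptide from an anti-phosphotyrosine antibody. IC50 came from a variable-slope sigmoidal fit of triplicates.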

[3] = system: MV4-11 cells; test: Inhibition of MV4-11 cell proliferation (CellTiterGlo); type: cell-based; conditions: Homo sapiens; 72 hours growth; uncertainty ±20%
Description: Inhibition of MV4-11 and Baf3 Cell Proliferation
To assess the cellular potency of the compounds of the present invention, FLT3 specific growth inhibition was measured in the leukemic cell line MV4-11 (ATCC Number: CRL-9591). MV4-11 cells are derived from a patient with childhood acute myelomonocytic leukemia with an 11q23 translocation resulting in a MLL gene rearrangement and containing an FLT3-ITD mutation (AML subtype M4)(1,2). MV4-11 cells cannot grow and survive without active FLT3ITD.
To measure proliferation inhibition by test compounds, the luciferase based CellTiterGlo reagent (Promega), which quantifies total cell number based on total cellular ATP concentration, was used. […]
Compound dilutions or 0.1% DMSO (vehicle control) are added to cells and the cells are allowed to grow for 72 hours at standard cell growth conditions (37° C., 5% CO2). […] To measure total cell growth an equal volume of CellTiterGlo reagent was added to each well, according to the manufacturer's instructions, and luminescence was quantified. Total cell growth was quantified as the difference in luminescent counts (relative light units, RLU) of cell number at Day 0 compared to total cell number at Day 3 (72 hours of growth and/or compound treatment). One hundred percent inhibition of growth is defined as an RLU equivalent to the Day 0 reading. […]

[4] = target: T3, isolated kinase domain of the human c-kit receptor (Homo sapiens, UniProt P10721); test: c-Kit Fluorescence Polarization Kinase Assay; type: biochemical; conditions: uncertainty ±10%; read-out: ckit IC50
T3 construct: isolated kinase domain of the human c-kit receptor; purchased ProQinase lot SP005
T3 sequence (P10721 589-937 limits assumed): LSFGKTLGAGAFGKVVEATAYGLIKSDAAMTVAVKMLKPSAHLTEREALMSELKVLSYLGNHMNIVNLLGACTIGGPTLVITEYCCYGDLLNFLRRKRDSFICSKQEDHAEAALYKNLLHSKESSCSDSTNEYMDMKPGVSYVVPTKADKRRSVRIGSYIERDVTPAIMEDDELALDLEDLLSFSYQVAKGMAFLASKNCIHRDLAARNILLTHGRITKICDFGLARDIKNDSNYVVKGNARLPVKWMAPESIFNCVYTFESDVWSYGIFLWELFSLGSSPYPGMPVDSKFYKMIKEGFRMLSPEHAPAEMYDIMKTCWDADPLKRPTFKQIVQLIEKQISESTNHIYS
Description: c-Kit Fluorescence Polarization Kinase Assay
The compounds of the present invention are also specific inhibitors of c-Kit. Selection of preferred compounds of Formula I for use as c-Kit inhibitors was performed in the following manner using an in vitro kinase assay to measure inhibition of the isolated kinase domain of the human c-kit receptor in a fluorescence polarization (FP) protocol. The c-kit assay utilized the fluorescein-labeled phosphopeptide and the anti-phosphotyrosine antibody included in the Panvera Phospho-Tyrosine Kinase Kit (Green) supplied by Invitrogen. When c-kit phosphorylated the poly Glu4Tyr, the fluorescein-labeled phosphopeptide was displaced from the anti-phosphotyrosine antibody by the phosphorylated poly Glu4Tyr, thus decreasing the FP value. The c-kit kinase reaction was incubated at room temperature for 45 minutes under the following conditions: 1 nM c-kit (ProQinase, lot SP005), 100 ug/mL poly Glu4Tyr, 50 uM ATP, 5 mM MgCl2, 1 mM DTT, 0.01% Tween-20, 1% DMSO or compound in […], pH 7.5. The kinase reaction was stopped with the addition of EDTA. The fluorescein-labeled phosphopeptide and the anti-phosphotyrosine antibody were added and incubated for 30 minutes at room temperature and fluorescence polarization was read. Data points were an average of triplicate samples. Inhibition and IC50 data analysis were done with GraphPad Prism using a non-linear regression fit with a multiparamater, sigmoidal dose-response (variable slope) equation.

| IC50 [1] | IC50 [2] | IC50 [3] | IC50 [4] | SMILES |
| --- | --- | --- | --- | --- |
| 1000 nM | 39100 nM |  |  | COc1cc2ncnc(C3CCN(C(=O)Nc4ccc(C(C)O)cc4)CC3)c2cc1OC (stereo not shown) [Compound 55, 4-(6,7-Dimethoxy-quinazolin-4-yl)-piperidine-1-carboxylic acid [4-(1-hydroxy-ethyl)-phenyl]-amide] |
| > 3000 nM | 39900 nM |  |  | COc1cc2ncnc(C3CCN(C(=O)Nc4ccc(N5CCN(C)CC5)cc4)CC3)c2cc1OC [Compound 20, 4-(6,7-Dimethoxy-quinazolin-4-yl)-piperidine-1-carboxylic acid [4-(4-methyl-piperazin-1-yl-phenyl)]-amide] |
|  | 600 nM | 14 nM | 14 nM | CC(C)Oc1ccc(NC(=O)N2CCC(c3ncnc4cc(OCCCN5CCN(C)CC5)ccc34)CC2)cc1 [Compound 39] |
